# Reference: patent US11197856B2, “Bicyclic compounds and methods for their use in treating autism” (priority 2013, dated 2021)
# Columns and labels:
# [1] = test system: cerebellar explants; experiment: Cerebellar explants, glutamate/3-nitropropionic acid neurotoxicity; format: cell-based, Wistar rats
# Method: Cover slips were placed into a large Petri dish and washed in 70% alcohol for 5 minutes, then washed with Millipore H2O. The cover slips were air dried, and coated with Poly-D-Lysine (1 mg/ml stock solution in PBS, 90-100 μl) for 2 hours at 34° C.
# Postnatal day 8 Wistar rats were used for the study. The rats were sacrificed and placed in ice for 1 minute, decapitated and the cerebellum removed and placed on ice. Cerebellum tissue was placed in 1 ml of 0.65% glucose-supplemented PBS (10 μl 65% stock D (+)glucose/1 ml PBS) in a large Petri dish, chopped up into smaller sections and triturated with a 1 ml insulin syringe via a 23 G (0.4 mm) needle, and then squirted back into the glucose solution in the large Petri dish. The tissue was sieved through (125 μm pore size gauze) and centrifuged (2 minutes at 60 g) twice to exchange the medium into serum-free BSA-supplemented START V medium (Biochrom, Germany). The second centrifugation step was done with 1 ml of START V medium. The microexplants were reconstituted into 500 μl of START V medium and put on ice.
# Two hours after PDL-coating, the slides were washed with Millipore H2O and air dried. Each slide was placed into a small Petri dish (diameter: 35 mm) and 40 μl of START V/cell suspension was added. The tissue was incubated for 2 hours at 34° C. (settlement period). START V-medium (1 ml) was then added to the Petri dish and cultivated at 34° C. in the presence of 5% CO2 in air at 100% humidity for 48 hours.
# For the study, certain explant cultures were exposed to vehicle (PBS) only. In the first study (Study 1) 10 μl of toxin 1 (L-glutamate—100 mM in Millipore water; final concentration; 1 mM) and 10 μl of toxin 2 (3-nitropropionic acid—50 mM—pH 7—in Millipore water, final concentration: 0.5 mM) was applied simultaneously with the drug to be tested ([…]). In each case, the drugs were left in contact with the explants for the duration of the study.
# After explants were exposed to drugs for the study period, cells were then rinsed in PBS and then fixed in increasing concentrations of paraformaldehyde (500 μl of 0.4% PFA was applied; then 1.2% PFA; then 3% PFA and finally 4% PFA (each fixation step: 2-3 minutes). Finally, the microexplants were rinsed in PBS.
# Neurons in the explants were then evaluated for morphology (presence of neurites) and counted as live cells per microscopic field. Four fields displaying highest cell density were counted per cover slip and the data presented as mean±standard error of the mean (SEM); n=4 each. Statistical significance was evaluated by using the non-paired Student's t-test.
# [2] = test system: fmr1-knockout mice and wild-type littermates; experiment: Open Field (OF) test; format: in vivo; conditions: for exploratory behavior (number of squares entered): fmr1-knockout animals; for number of squares entered: wild-type animals
# Method: The fmr1-knockout 2 mice (C57BL/6 background) were housed in groups of the same genotype in a temperature and humidity controlled room with a 12-h light-dark cycle (lights on 7 am to […]). Testing was conducted during the light phase. Food and water were available ad libitum. Testing was conducted on fmr1-knockout mice and their wild-type littermates. Experiments were conducted in line with the requirements of the UK Animals (Scientific Procedures) Act, 1986.
# The Open Field (OF) test is a combined test that is used to determine anxiety/hyperactivity, and for habituation to a novel environment, one of the most elementary forms of learning, in which decreased exploration as a function of repeated exposure to the same environment is taken as an index of memory. This is normally studied in two sessions of exposure to the open field, a 10-min and a 24 hr habituation session.
# The device used for this study is a grey PVC enclosed arena 50×30 cm divided into 10 cm squares. Mice are brought to the experimental room 5-20 min before testing. A mouse is placed into a corner square facing the corner and observed for 3 min. The number of squares entered (whole body) and rears (both front paws off the ground, but not as part of grooming) are counted. The latency to the first rear is also noted. The movement of the mouse around the field was recorded with a video tracking device for 300s (vNT4.0, Viewpoint). The latency for the mouse to enter the brightest, central part of the field total time spent in this central region, and total activity (in terms of path length in centimeters), were recorded.
# The open field (OF) test is a test used to characterize explorative behavior, anxiety, and or hyperactivity in animals habituated to daily handling under novel and familiar conditions. During exposure to the open field mice will habituate to the environment and thus explore less, decreasing the amount movement they show over time.
# In the present experiment, we recorded movement and rearing during an initial exposure (T1), during a second exposure after 10 minutes (T2) and during a third exposure after 24 hours (T3). Failures to reduce locomotion or rearing at 10 minutes and 24 hours indicate deficits in short and long term memory, respectively.
smiles,measurement,setting,value
"C=CC[C@]12CCCN1C(=O)CNC2=O [cG-2-AllylP, (8aS)-Allyl-hexahydropyrrolo[1,2-a]pyrazine-1,4-dione]",numbers of cells having neurites,[1]; administered simultaneously with glutamate,significantly increased the numbers of cells having neurites in a dose-dependent manner
same,glutamate-induced neurotoxicity,[1]; low doses (cG-2-AllylP: 100 pm to 10 nm),significant decrease in glutamate-induced neurotoxicity
same,exploratory behavior (number of squares entered),[2]; T1,significantly reduced the exploratory behavior of fmr1-knockout animals
same,number of squares entered,[2]; T1,about the same number of squares
same,exploratory behavior (number of squares entered),[2]; T2 (10 minutes),normalized the magnitude of their behavior to that of the wild-type animals
same,number of squares entered,[2]; T2 (10 minutes),about 45 squares
same,exploratory behavior (number of squares entered),[2]; T3 (24 hours),normalized exploratory behavior at T3
same,number of squares entered,[2]; T3 (24 hours),25-30 squares
